The kinase profiling compilation of Christmann-Franck et al. (2016)

Tests used:
Experiment in all cases: KINOMEscan competition binding
Settings in all cases: compound 0.5 µM
MAPK4 (human) = MAPK4 (human) (UniProt P31152)
RPS6KA4 KD1 (human) = RPS6KA4 KD1 (human) (UniProt O75676)
RAF1 (human) = RAF1 (human) (UniProt P04049)
KDR (human) = KDR (human) (UniProt P35968)
RPS6KA6 KD1 (human) = RPS6KA6 KD1 (human) (UniProt Q9UK32)
EPHB1 (human) = EPHB1 (human) (UniProt P54762)
CLK2 (human) = CLK2 (human) (UniProt P49760)
ADCK3 (human) = ADCK3 (human) (UniProt Q8NI60)
ADCK3 (human), sequence (Q8NI60 whole entry, looked up): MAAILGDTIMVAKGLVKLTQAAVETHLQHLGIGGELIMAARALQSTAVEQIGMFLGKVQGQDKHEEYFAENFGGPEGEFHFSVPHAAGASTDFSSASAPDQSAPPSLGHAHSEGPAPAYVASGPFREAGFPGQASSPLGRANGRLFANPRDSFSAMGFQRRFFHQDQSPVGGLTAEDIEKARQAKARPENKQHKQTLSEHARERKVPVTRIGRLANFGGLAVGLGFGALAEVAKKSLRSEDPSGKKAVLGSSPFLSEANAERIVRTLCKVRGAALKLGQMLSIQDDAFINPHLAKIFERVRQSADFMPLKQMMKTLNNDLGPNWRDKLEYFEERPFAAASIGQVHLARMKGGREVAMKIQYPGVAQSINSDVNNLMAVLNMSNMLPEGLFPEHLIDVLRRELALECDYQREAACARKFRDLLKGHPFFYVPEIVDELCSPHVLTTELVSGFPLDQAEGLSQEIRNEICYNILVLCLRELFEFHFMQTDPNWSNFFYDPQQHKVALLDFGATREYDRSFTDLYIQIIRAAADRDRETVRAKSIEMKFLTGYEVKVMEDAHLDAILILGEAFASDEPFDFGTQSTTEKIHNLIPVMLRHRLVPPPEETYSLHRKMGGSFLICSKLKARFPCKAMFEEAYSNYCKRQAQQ

PRKCQ (human) = PRKCQ (human) (UniProt Q04759)
[1] = tested on: RET (human), P07949 [V804L]
MAP2K4 (human) = MAP2K4 (human) (UniProt P45985)
MELK (human) = MELK (human) (UniProt Q14680)
MELK (human), sequence (Q14680 whole entry, looked up): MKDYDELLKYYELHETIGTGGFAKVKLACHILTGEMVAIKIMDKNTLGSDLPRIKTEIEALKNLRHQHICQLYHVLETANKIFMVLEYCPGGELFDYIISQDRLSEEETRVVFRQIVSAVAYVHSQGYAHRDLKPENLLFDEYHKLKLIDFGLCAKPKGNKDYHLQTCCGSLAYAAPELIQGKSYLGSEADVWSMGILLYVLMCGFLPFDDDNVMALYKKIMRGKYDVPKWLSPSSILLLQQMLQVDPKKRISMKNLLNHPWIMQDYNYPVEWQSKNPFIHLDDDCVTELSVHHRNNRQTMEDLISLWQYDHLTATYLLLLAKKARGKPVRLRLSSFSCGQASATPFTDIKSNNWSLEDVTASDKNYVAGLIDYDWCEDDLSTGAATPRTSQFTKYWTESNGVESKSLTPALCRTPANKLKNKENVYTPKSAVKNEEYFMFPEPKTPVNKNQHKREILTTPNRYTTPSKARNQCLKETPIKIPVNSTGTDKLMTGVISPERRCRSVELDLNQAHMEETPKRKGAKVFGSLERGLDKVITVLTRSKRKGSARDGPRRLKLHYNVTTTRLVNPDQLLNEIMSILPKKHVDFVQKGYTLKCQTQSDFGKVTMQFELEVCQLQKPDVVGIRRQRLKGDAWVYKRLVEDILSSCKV

MAPK11 (human) = MAPK11 (human) (UniProt Q15759)
MAPK11 (human), sequence (Q15759 whole entry, looked up): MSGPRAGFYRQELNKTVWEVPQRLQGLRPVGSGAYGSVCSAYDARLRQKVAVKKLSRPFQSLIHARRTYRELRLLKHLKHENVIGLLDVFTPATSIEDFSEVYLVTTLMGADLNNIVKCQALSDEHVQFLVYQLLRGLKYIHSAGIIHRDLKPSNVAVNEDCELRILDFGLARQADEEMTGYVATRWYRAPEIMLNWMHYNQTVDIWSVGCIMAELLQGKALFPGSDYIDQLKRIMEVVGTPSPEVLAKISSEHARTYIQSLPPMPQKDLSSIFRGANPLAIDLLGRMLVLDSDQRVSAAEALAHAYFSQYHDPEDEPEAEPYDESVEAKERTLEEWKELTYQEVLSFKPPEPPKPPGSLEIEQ

DYRK1B (human) = DYRK1B (human) (UniProt Q9Y463)
PRKAA1 (human) = PRKAA1 (human) (UniProt Q13131)
ICK (human) = ICK (human) (UniProt Q9UPZ9)
MAP2K1 (human) = MAP2K1 (human) (UniProt Q02750)
[2] = tested on: FLT3 (human), P36888 [N841I]
STK17A (human) = STK17A (human) (UniProt Q9UEE5)
EPHA5 (human) = EPHA5 (human) (UniProt P54756)
TAOK3 (human) = TAOK3 (human) (UniProt Q9H2K8)
CDKL1 (human) = CDKL1 (human) (UniProt Q00532)
NEK5 (human) = NEK5 (human) (UniProt Q6P3R8)
PRKG2 (human) = PRKG2 (human) (UniProt Q13237)
PRKG2 (human), sequence (Q13237 whole entry, looked up): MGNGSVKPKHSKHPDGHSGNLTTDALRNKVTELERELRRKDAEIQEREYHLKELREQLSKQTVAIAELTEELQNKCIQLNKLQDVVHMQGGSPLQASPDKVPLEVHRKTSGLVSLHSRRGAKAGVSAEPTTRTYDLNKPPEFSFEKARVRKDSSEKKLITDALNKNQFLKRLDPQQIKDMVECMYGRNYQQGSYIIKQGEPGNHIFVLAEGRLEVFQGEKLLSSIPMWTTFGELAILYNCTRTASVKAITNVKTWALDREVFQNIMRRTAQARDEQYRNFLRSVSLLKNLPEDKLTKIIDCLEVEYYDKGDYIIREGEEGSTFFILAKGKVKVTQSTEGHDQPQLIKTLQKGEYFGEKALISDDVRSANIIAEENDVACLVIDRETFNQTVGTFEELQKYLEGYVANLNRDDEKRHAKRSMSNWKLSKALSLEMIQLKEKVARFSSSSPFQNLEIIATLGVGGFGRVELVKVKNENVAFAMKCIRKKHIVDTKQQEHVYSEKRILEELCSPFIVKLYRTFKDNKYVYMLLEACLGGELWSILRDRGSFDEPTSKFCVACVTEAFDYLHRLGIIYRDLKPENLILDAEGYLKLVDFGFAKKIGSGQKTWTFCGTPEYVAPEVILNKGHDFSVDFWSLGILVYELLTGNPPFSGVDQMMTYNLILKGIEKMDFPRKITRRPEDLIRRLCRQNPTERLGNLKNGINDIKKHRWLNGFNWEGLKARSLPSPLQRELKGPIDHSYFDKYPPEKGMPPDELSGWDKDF

CDKL5 (human) = CDKL5 (human) (UniProt O76039)
INSRR (human) = INSRR (human) (UniProt P14616)
MAP2K5 (human) = MAP2K5 (human) (UniProt Q13163)
LATS2 (human) = LATS2 (human) (UniProt Q9NRM7)
CAMKK2 (human) = CAMKK2 (human) (UniProt Q96RR4)
LIMK2 (human) = LIMK2 (human) (UniProt P53671)
WEE1 (human) = WEE1 (human) (UniProt P30291)
[3] = tested on: PIK3CA (human), P42336 [I800L]
ALK (human) = ALK (human) (UniProt Q9UM73)
[4] = tested on: FGFR3 (human), P22607 [G697C]
MAP4K4 (human) = MAP4K4 (human) (UniProt O95819)
ROS1 (human) = ROS1 (human) (UniProt P08922)
SGK110 (human) = SGK110 (human) (UniProt P0C264)
DDR2 (human) = DDR2 (human) (UniProt Q16832)
MAPK7 (human) = MAPK7 (human) (UniProt Q13164)
MAPK7 (human), sequence (Q13164 whole entry, looked up): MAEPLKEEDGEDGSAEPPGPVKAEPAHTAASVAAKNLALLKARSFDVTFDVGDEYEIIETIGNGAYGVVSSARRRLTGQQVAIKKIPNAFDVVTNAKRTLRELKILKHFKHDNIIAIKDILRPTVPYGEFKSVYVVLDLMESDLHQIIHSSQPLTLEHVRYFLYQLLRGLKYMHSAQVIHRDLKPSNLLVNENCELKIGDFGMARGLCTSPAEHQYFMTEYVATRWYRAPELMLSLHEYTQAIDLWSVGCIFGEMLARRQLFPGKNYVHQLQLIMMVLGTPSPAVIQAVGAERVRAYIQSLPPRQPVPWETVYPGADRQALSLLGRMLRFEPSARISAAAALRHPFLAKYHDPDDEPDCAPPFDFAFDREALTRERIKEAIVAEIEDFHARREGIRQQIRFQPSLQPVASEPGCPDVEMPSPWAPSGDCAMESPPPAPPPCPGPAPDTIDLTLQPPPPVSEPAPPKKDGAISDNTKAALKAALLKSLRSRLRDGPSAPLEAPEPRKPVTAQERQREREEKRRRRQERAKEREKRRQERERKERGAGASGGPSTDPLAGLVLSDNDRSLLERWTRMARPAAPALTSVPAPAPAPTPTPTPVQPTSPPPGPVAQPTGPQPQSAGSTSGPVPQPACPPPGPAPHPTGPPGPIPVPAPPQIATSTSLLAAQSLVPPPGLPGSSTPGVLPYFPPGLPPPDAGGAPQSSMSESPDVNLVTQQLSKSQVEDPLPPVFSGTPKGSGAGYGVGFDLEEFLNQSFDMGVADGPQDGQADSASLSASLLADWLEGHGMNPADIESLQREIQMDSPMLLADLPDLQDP

TXK (human) = TXK (human) (UniProt P42681)
LTK (human) = LTK (human) (UniProt P29376)
MST4 (human) = MST4 (human) (UniProt Q9P289)

RPS6KA4 KD1 (human), sequence (O75676 whole entry, looked up): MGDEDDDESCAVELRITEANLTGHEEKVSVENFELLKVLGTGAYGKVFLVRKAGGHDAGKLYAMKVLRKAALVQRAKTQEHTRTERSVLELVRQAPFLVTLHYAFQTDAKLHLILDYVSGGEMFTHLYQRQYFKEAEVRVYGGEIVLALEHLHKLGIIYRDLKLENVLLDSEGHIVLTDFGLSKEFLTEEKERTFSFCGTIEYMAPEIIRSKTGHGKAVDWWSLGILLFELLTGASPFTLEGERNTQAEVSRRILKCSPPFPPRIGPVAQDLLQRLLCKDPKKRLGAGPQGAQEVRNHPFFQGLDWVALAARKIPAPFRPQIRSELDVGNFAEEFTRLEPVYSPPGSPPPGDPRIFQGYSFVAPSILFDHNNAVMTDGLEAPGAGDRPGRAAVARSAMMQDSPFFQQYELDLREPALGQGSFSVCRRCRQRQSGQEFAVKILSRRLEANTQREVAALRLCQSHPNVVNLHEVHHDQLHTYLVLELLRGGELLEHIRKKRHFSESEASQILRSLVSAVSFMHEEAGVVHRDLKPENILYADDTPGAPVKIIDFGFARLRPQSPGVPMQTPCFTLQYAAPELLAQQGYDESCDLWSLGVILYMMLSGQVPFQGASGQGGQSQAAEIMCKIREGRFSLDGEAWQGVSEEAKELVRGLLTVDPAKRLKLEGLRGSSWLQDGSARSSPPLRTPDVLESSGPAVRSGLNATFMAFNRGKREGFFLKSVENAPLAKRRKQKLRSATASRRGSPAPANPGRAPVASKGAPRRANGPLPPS
EPHB1 (human), sequence (P54762 whole entry, looked up): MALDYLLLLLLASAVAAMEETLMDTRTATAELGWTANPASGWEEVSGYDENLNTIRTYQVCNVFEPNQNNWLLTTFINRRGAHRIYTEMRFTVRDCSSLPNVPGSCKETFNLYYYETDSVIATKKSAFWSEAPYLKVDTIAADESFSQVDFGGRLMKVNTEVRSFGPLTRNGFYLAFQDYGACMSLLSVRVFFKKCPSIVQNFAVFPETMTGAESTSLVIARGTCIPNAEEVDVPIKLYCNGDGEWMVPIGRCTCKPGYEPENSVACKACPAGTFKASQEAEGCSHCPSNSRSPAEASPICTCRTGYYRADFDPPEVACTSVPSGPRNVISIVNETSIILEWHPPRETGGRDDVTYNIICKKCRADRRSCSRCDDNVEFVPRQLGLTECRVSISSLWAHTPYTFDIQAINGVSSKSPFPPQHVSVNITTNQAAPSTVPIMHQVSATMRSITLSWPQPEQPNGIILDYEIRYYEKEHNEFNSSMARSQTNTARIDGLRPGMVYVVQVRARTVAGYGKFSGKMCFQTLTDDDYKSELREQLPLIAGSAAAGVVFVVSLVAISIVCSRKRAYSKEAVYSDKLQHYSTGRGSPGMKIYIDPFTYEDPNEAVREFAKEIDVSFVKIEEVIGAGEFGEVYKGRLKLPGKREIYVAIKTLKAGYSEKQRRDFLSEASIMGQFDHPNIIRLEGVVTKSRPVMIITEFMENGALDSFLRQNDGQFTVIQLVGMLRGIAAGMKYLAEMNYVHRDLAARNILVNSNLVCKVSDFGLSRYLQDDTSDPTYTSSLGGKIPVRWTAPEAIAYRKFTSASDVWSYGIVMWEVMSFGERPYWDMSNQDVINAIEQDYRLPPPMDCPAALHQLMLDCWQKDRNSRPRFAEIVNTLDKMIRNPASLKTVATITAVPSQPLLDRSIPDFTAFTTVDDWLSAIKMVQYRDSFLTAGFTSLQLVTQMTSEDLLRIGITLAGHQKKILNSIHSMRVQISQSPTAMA

## Cn1c2ccccc2c2c3c(c4c5ccccc5n(CCC#N)c4c21)CNC3=O
MAPK4 (human)
  kinase still bound, per cent of control: 100%
RPS6KA4 KD1 (human)
  kinase still bound, per cent of control: 46%
RAF1 (human)
  kinase still bound, per cent of control: 100%
KDR (human)
  kinase still bound, per cent of control: 82%
RPS6KA6 KD1 (human)
  kinase still bound, per cent of control: 4.7%
EPHB1 (human)
  kinase still bound, per cent of control: 97%
CLK2 (human)
  kinase still bound, per cent of control: 38%
ADCK3 (human)
  kinase still bound, per cent of control: 100%
PRKCQ (human)
  kinase still bound, per cent of control: 59%
[1]
  kinase still bound, per cent of control: 0.1%
MAP2K4 (human)
  kinase still bound, per cent of control: 1.2%
MELK (human)
  kinase still bound, per cent of control: 22%
MAPK11 (human)
  kinase still bound, per cent of control: 97%
DYRK1B (human)
  kinase still bound, per cent of control: 12%
PRKAA1 (human)
  kinase still bound, per cent of control: 59%
ICK (human)
  kinase still bound, per cent of control: 20%
MAP2K1 (human)
  kinase still bound, per cent of control: 71%
[2]
  kinase still bound, per cent of control: 0%
STK17A (human)
  kinase still bound, per cent of control: 71%
EPHA5 (human)
  kinase still bound, per cent of control: 96%
TAOK3 (human)
  kinase still bound, per cent of control: 12%
CDKL1 (human)
  kinase still bound, per cent of control: 81%
NEK5 (human)
  kinase still bound, per cent of control: 100%
PRKG2 (human)
  kinase still bound, per cent of control: 11%
CDKL5 (human)
  kinase still bound, per cent of control: 10%
INSRR (human)
  kinase still bound, per cent of control: 100%
MAP2K5 (human)
  kinase still bound, per cent of control: 58%
LATS2 (human)
  kinase still bound, per cent of control: 36%
CAMKK2 (human)
  kinase still bound, per cent of control: 1.6%
LIMK2 (human)
  kinase still bound, per cent of control: 100%
WEE1 (human)
  kinase still bound, per cent of control: 100%
[3]
  kinase still bound, per cent of control: 19%
ALK (human)
  kinase still bound, per cent of control: 2.1%
[4]
  kinase still bound, per cent of control: 100%
MAP4K4 (human)
  kinase still bound, per cent of control: 2.2%
ROS1 (human)
  kinase still bound, per cent of control: 1.8%
SGK110 (human)
  kinase still bound, per cent of control: 13%
DDR2 (human)
  kinase still bound, per cent of control: 100%
MAPK7 (human)
  kinase still bound, per cent of control: 0.1%
TXK (human)
  kinase still bound, per cent of control: 11%
LTK (human)
  kinase still bound, per cent of control: 4.2%
MST4 (human)
  kinase still bound, per cent of control: 100%
